Where a SMILES comes first, the peptide text is derived from it.
How the values were obtained:
[1] = test system: procollagen type I peptide production; experiment: Procollagen Type I Peptide (PIP) production in NHDF cells (EIA); format: cell-based, Human
Method: Normal Human Dermal Fibroblasts (NHDF) were obtained from Lonza (Lonza Walkersville, Inc.) and cultured in FBM (Fibroblast Basal Medium) supplemented with 0.1% hFGF-B, insulin, GA-1000, and 2% FBS at 37 °C in a 5% CO2 incubator. Subculture was performed every 2 to 3 days.
NHDF cells were seeded at 2.0×10^4 cells/well in a 24-well plate and incubated for 24 hours at 37 °C in a 5% CO2 incubator. After incubation, the culture medium was replaced with serum-free FBM, and the peptide prepared in the above Example was applied at concentrations of 1-100 μM, followed by incubation for 24 hours. The supernatant from each experimental group was collected, and the amount of procollagen released into the medium was measured. The positive control group was treated with ascorbic acid at a concentration of 0.001 v/v %. Measurement of procollagen levels was performed using a Procollagen Type I Peptide (PIP) EIA Kit (Takara Biomedical Co.) according to the manufacturer's protocol. The quantitative results of procollagen type I peptide production following treatment with the peptide of the Example are shown in Table 3 and FIG. 4.

[2] = Cytotoxicity Evaluation in Macrophages (EZ-Cytox Assay); format: cell-based; settings: mouse, positive control, LPS 1 μg/ml, RAW264.7 cells, control = 100, read-out: Cell viability (%)
Method: (§1) RAW264.7 macrophage cells were obtained from the American Type Culture Collection (ATCC) and cultured in Dulbecco's Modified Eagle's Medium (DMEM) containing 100 units/mL penicillin-streptomycin and 10% (v/v) fetal bovine serum (FBS) at 37 °C in a 5% CO2 incubator, and subculture was performed every 2 to 3 days.
The EZ-cytox assay is a representative method for measuring cell viability using the principle that water-soluble tetrazolium salts (WSTs) react with dehydrogenases of viable cells to produce a water-soluble orange formazan.
To evaluate cytotoxicity, RAW264.7 cells were seeded at 1.5×10^4 cells/well in a 96-well plate using DMEM supplemented with 10% FBS and incubated for 18 hours at 37 °C in a 5% CO2 incubator. The test samples were then applied to the cultured cells. After treatment, EZ-cytox was added to each well and incubated for 30 minutes under the same conditions. Absorbance was measured at 450 nm using a microplate reader. The mean absorbance values of each sample group were compared with the control group to determine cell viability.

[3] = test system: hyaluronic acid production; experiment: Hyaluronic acid (HA) production in HaCaT cells (ELISA); format: cell-based, human
Method: The HaCaT human keratinocyte cell line was obtained from Cell Line Service GmbH (Germany). The cells were cultured in DMEM containing 1% penicillin-streptomycin and 10% fetal bovine serum (FBS) at 37 °C in a 5% CO2 incubator, and subculture was performed every 2 to 3 days.
HaCaT cells were seeded at 1.0×10^5 cells/well in a 24-well plate and incubated for 24 hours at 37 °C in a 5% CO2 incubator. After incubation, the culture medium was replaced with serum-free DMEM, and the peptide prepared in the above Example was applied at concentrations of 50-200 μM, followed by incubation for 24 hours.
The supernatant from each experimental group was collected, and the amount of hyaluronic acid (HA) released into the medium was measured. The positive control group was treated with N-acetylglucosamine at a concentration of 10 mM. Measurement of hyaluronic acid production was conducted using a Hyaluronic Acid ELISA Kit (Cusabio Biotechnology Co., Ltd.) following the manufacturer's protocol.

[4] = test system: nitric oxide (NO) production; experiment: Inhibition of Nitric Oxide (NO) Production (griess reagent) in LPS-stimulated RAW264.7 cells; format: cell-based; settings: 24 hours; for NO Production (%): LPS 1 μg/ml, relative to LPS control = 100
Method: as §1
RAW264.7 cells were seeded at 1.5×10^5 cells/well in a 24-well plate and incubated for 18 hours at 37 °C in a 5% CO2 incubator. The cells were then treated with the peptide prepared in the above Example at concentrations of 50-200 μM and incubated for 24 hours.
From each experimental group, 100 μL of the supernatant was collected into a 96-well plate, and 100 μL of griess reagent was added. The mixture was allowed to react at room temperature for 10 minutes, and absorbance was measured at 540 nm using a microplate reader. The positive control group was treated with 2 µM of 2-amino-4-methylpyridine (2-AM). The relative levels of NO production following the treatments described in the above Example, based on NO production induced by the stimulant (LPS), are shown in Table 1 and FIG. 2 below.

[5] = 50 μM, 24 hours, untreated group = 100
[6] = 100 μM, 24 hours, untreated group = 100

`O=C1O[C@H]([C@@H](O)CO)C(O)=C1O` [Asc. A, ascorbic acid, reference compound] showed an activity at 10 µg/mL ([1]; Homo sapiens, 24 h, 10 μg/mL, positive control, untreated group = 100) of 176 ± 3.91%.
`Cc1ccnc(N)c1` [Example 2-AM, 2-amino-4-methylpyridine, reference compound] showed a viability at 10 µM [2] of 94.1 ± 1.76%.
With `N[C@@H](Cc1ccc(O)cc1)C(=O)NCC(=O)N[C@@H](CO)C(=O)N[C@@H](CC(=O)O)C(=O)O` [Example, Tyr-Gly-Ser-Asp] (H-YGSD-OH) the “Hyaluronic acid production (%)” value [3, 5] was 105.1 ± 5.45%, the “Hyaluronic acid production (%)” value [3, 6] was 123.64 ± 0.81% and the “Hyaluronic acid production (%)” value ([3]; 200 μM, 24 hours, untreated group = 100) was 132.68 ± 22.43%. For the same compound, the “hyaluronic acid production, result in words” value ([3]; 50-200 μM, 24 hours) was “increase in hyaluronic acid production”, the “Procollagen production (%)” value ([1]; 1 μM, 24 hours, untreated group = 100) was 103.47 ± 6.38% and the “Procollagen production (%)” value ([1]; 10 μM, 24 hours, untreated group = 100) was 110.79 ± 5.44%. The “Procollagen production (%)” value [1, 5] was 121.67 ± 3.57%, the “Procollagen production (%)” value [1, 6] was 132.38 ± 1.24% and the “procollagen production, result in words” value ([1]; 1-100 μM, 24 hours) was “increase in procollagen production”. The “NO Production (%)” value ([4]; 50 μM) was 101.55 ± 2.59%, the “NO Production (%)” value ([4]; 100 μM) was 91.42 ± 4.58% and the “NO Production (%)” value ([4]; 200 μM) was 86.51 ± 2.39%. The “NO production, result in words” value ([4]; 50-200 μM, LPS) was “inhibit NO production in a concentration-dependent manner”.
`CC(=O)N[C@H]1C(O)O[C@H](CO)[C@@H](O)[C@@H]1O` (stereo partly shown) [NAG, N-acetylglucosamine, reference compound] gave an activity at 10000 µM ([3]; Homo sapiens, 24 h, 10 mM, positive control, untreated group = 100) of 121 ± 10.4%.

Reference: patent US20260365695A1, “NOVEL PEPTIDE EXHIBITING SKIN CONDITION IMPROVEMENT ACTIVITY AND COSMETIC COMPOSITION CONTAINING SAME” (DAEBONG LS CO., LTD., priority 2023, published 2026)
